Source: US20130165625A1, “PEPTIDES INCORPORATING 3-AMINOADAMANTANE CARBOXYLIC ACIDS ENHANCE SYNAPTIC PLASTICITY AND ACT AS NEUROGENIC AGENTS” (JUSTUS-LIEBIG-UNIVERSITAT GIESSEN, priority 2010, published 2013)
Residues, ends and D or L forms follow the SMILES beside them.

Legend:
[1] = General examination: body weight and physical state during peptide treatment; type: in vivo, mice; conditions: s.c. depot pellets 25 nmol/day for 35 days; for effect on body weight: FIG. 1A, female C57BI6 mice
Description: (§1) All in vivo studies for characterization of peptides (stereology and behavioral analysis) were performed on 8-10-month-old female retired breeders of C57BI6 background. Animals were acclimatized for at least 3 weeks to exclude occasional pregnant mice from the studies. Mice were group-housed (3 animals per cage) with a 12:12 hours light/dark cycle and with free access to food and water. All procedures were conducted in accordance with approved protocols from our institutional Animal Welfare Committee. For the peptide treatment, mice (8 animals/group) received subcutaneous implants of long term continuous release depot pellets containing Peptide021 or Peptide022 at 25 nmol/day for 35 days of continuous dosing (Innovative Research of America, Sarasota, Fla.). For the control group (8 animals), pellets consisted of the carrier polymer only. Mice were anesthetized with 2.5% Avertin (0.38 ml for a 25 g animal). Under sterile conditions, pellets were implanted subcutaneously along the anterolateral aspect of the right shoulder with a precision trochar (Innovative Research of America, Sarasota, Fla.). After recovery of anesthesia, animals were transferred to the animal colony. […] To investigate neurogenesis, BrdU (Sigma, St. Louis, Mo.) was given as two daily i.p. injections (100 mg/kg/dose) for five days starting on day 2 of peptides treatment.
The physical state and condition of animals were carefully monitored throughout the treatment by evaluating grooming, physical state and clasping reflex. Body weight was also recorded.

[2] = test system: mice; assay: Open field familiarization session (locomotor/exploratory activity and anxiety); type: in vivo; conditions: for anxiety level of mice: FIG. 1B, time in centre of arena, first 5 minutes, s.c. pellets 25 nmol/day; for effect on exploratory activity: FIG. 1C, open field, s.c. pellets 25 nmol/day for 35 days
Description: as §1
In the one-trial object recognition task, animals are exposed to two different objects which they have to identify as novel or familiar based on the memory of an earlier experience with one of the two objects they encountered in the same open field. The familiar object is explored shorter than the novel encountered one because the representation of the former is still available in memory. The one-trial object recognition task tests some aspects of episodic memory but is limited to memory of an object (what), the location of an object (where), and the context in which is was encountered (which). However, the temporal dimension of the episode remains inaccessible to the experimentator, and because of this reason this task in animals is considered a test of short term memory (Ennaceur, 2010). The test used was an adaptation of the procedure previously described by Sargolini and collaborators (2003). The testing apparatus was a classic open field (i.e. a PVC square arena, 50×50 cm, with walls 40 cm high). The open field was placed in a part of the room separated from the experimentator with a black opaque curtain. The open field was surmounted by a video camera connected to a computer. Three objects were employed in this task. The general procedure consisted of three different phases: a familiarization phase (one session of 20 min), a sample phase, and a test phase. […] Object discrimination (OD) during the test phase was evaluated as […]

[3] = test system: mice; assay: One-trial object recognition test; type: in vivo; conditions: FIG. 1E-F; p<0.05, Student t-test; s.c. pellets 25 nmol/day
Description: All in vivo studies for characterization of peptides (stereology and behavioral analysis) were performed on 8-10-month-old female retired breeders of C57BI6 background. Animals were acclimatized for at least 3 weeks to exclude occasional pregnant mice from the studies. Mice were group-housed (3 animals per cage) with a 12:12 hours light/dark cycle and with free access to food and water. All procedures were conducted in accordance with approved protocols from our institutional Animal Welfare Committee. For the peptide treatment, mice (8 animals/group) received subcutaneous implants of long term continuous release depot pellets containing Peptide021 or Peptide022 at 25 nmol/day for 35 days of continuous dosing (Innovative Research of America, Sarasota, Fla.). For the control group (8 animals), pellets consisted of the carrier polymer only. Mice were anesthetized with 2.5% Avertin (0.38 ml for a 25 g animal). […]
In the one-trial object recognition task, animals are exposed to two different objects which they have to identify as novel or familiar based on the memory of an earlier experience with one of the two objects they encountered in the same open field. […] Object discrimination (OD) during the test phase was evaluated as […]

[4] = test system: mice; assay: Spatial reference memory task in the water maze; type: in vivo; conditions: for effect on swim speed: FIG. 1D, water maze, s.c. pellets 25 nmol/day for 35 days; for performance in the learning of spatial memory task in water maze: FIG. 1G, p<0.001, two-way ANOVA, s.c. pellets 25 nmol/day
Description: as §1
Spatial reference learning and memory were evaluated in the water maze using a procedure adapted from that previously described by Morris et al. (1982). The test required that mice used a spatial navigational strategy based on a spatial representation of the environment to find a fixed submerged escape platform. The procedure was performed in a 180 cm diameter circular tank. The pool was filled with water (21±1)° C. made opaque by adding white non-toxic paint. Acquisition started with the escape platform (15 cm diameter submerged 1 cm below water surface) in the Northwest quadrant and each animal was given 90 s to find the platform. […] At the end of each trial, the mouse was left on the platform for 20 s, then dried and returned to its home cage until the next trial. Five such acquisition trials were given on each day for four consecutive days. A test for retention, or probe trial (PT), was given 24 hours later. During the probe trial the mouse was allowed to swim in the tank without the escape platform for 60 seconds. This was followed by second and third probe trials 15 and 30 days after the first probe trial. The measures of learning were the time and distance covered to reach the escape platform. For the probe trial, the tank was divided into four imaginary quadrants and a small zone where the escape platform had been. The measures of retention were calculated index as the ratio of time spent or distance covered in target quadrant over them in the three other quadrants. Mouse behavior in the water maze was monitored by a Samsung Digital Camera (SDC 4304) mounted to the ceiling and tracked and timed by a SMART (Pan Lab/San Diego Instruments) version 2.0.14 software. Immunohistochemistry

[5] = test system: BrdU-positive and BrdU/NeuN-double-positive cells in the dentate gyrus; assay: Neurogenesis in the dentate gyrus (BrdU / NeuN immunohistochemistry, unbiased stereology); type: in vivo, mice; conditions: p<0.05, s.c. pellets 25 nmol/day
Description: as §1
At the end of the behavioral experiment, animals were anesthetized with an overdose of sodium pentobarbital (50 mg/kg) and transcardially perfused with 0.1 M phosphate buffered saline (PBS). After perfusion, the brains were removed from the skull, the left hemisphere was immediately frozen for future biochemical analysis and the right hemisphere was immersion fixed in 4% paraformaldehyde in 0.1 M PBS for at least 24 hours at room temperature. Tissues were equilibrated and stored in 30% sucrose solution at 4° C. until sectioning. The brains were sectioned sagittaly on a freezing sliding microtome at 40 μm through the entire hippocampus and the sections were stored in glycol anti-freeze solution (Ethylene glycol, glycerol and 0.1 M PBS in 3:3:4 ratio) at −20° C. until further processing. For double labeling of BrdU and NeuN, brain sections were pretreated with 2 M HCl at 37° C. for 30 min and neutralized with 0.1 M borate buffer (pH 8.5) for 10 minutes. Tissue sections were incubated first for 30 min with blocking buffer (4% normal goat serum +0.1% Tween-20 in PBS) and then overnight at 4° C. in the presence of BrdU (Millipore Corporation, Billerica, Mass.) and NeuN (Millipore Corporation) antibodies diluted 1:400 and 1:100, respectively. […] Neurogenesis in the dentate gyrus was evaluated by counting the number of BrdU-positive and BrdU/NeuN-double-positive cells in the dentate gyrus (DG). The number of positive cells was determined in every fifth section in a series of 40 μm sagittal sections throughout the DG using unbiased sterology (West et al., 1991). All BrdU-positive cells in the subgranular zone (SGZ) and granule cell layer (GCL) were counted using a fluorescent microscope (Nikon Eclipse 90i, Nikon Corporation, Japan). Double labeled cells were assessed by a confocal imaging system (D-Eclipse C1, Nikon Corporation). […] For each brain, at least 100 cells were counted based on coefficient of error determinations. […]

[6] = test system: synaptophysin; assay: Expression of synaptophysin in DG (immunohistochemistry, mean optical density); type: in vivo, mice; conditions: FIG. 3A; p<0.001; s.c. pellets 25 nmol/day
Description: (§2) All in vivo studies for characterization of peptides (stereology and behavioral analysis) were performed on 8-10-month-old female retired breeders of C57BI6 background. Animals were acclimatized for at least 3 weeks to exclude occasional pregnant mice from the studies. Mice were group-housed (3 animals per cage) with a 12:12 hours light/dark cycle and with free access to food and water. All procedures were conducted in accordance with approved protocols from our institutional Animal Welfare Committee. […]
(§3) At the end of the behavioral experiment, animals were anesthetized with an overdose of sodium pentobarbital (50 mg/kg) and transcardially perfused with 0.1 M phosphate buffered saline (PBS). […] Neurogenesis in the dentate gyrus was evaluated by counting the number of BrdU-positive and BrdU/NeuN-double-positive cells in the dentate gyrus (DG). The number of positive cells was determined in every fifth section in a series of 40 μm sagittal sections throughout the DG using unbiased sterology (West et al., 1991). All BrdU-positive cells in the subgranular zone (SGZ) and granule cell layer (GCL) were counted using a fluorescent microscope (Nikon Eclipse 90i, Nikon Corporation, Japan). Double labeled cells were assessed by a confocal imaging system (D-Eclipse C1, Nikon Corporation). […] For each brain, at least 100 cells were counted based on coefficient of error determinations. […]

[7] = test system: synapsin I; assay: Expression of synapsin I in DG (immunohistochemistry, mean optical density); type: in vivo, mice; conditions: FIG. 3B; p<0.001; s.c. pellets 25 nmol/day
Description: as §2, §3

[8] = test system: LIF-induced STAT3 phosphorylation at Tyr705; assay: Analysis of STAT3 phosphorylation in HepG2 cells; type: cell-based, human; conditions: FIG. 4, different peptide concentrations with 0.25 nM LIF for 15 min, Western blot
Description: To investigate the molecular mechanism of action of Peptide021 in LIF signaling, HepG2 human hepatoma cell (ATCC, Manassas, Va.) at 80% confluence were treated with different concentrations of Peptide021 and with 0.25 nM LIF (Chemicon International Inc., Temecula, Calif.) for 15 min. The cells were lysed and subjected to Western blots developed with antibodies anti-phospho-Tyr 705 STAT3 and anti-STAT3 (Cell signaling Technology, Danvers, Mass.).
HepG2 cells were treated with different concentrations of Peptide 021 together with 0.25 nM LIF for 15 min, and then the STAT3 phosphorylation at Tyr705 (pY-STAT3) was determined by Western blots. The pY-STAT3 value was normalized to total STAT3 expression. Data are presented as percentages of the value from cells treated with 0.25 nM LIF alone (100%). *p<0.01.

Row | Compound | effect on body weight [1] | complications associated with the implantation and treatment [1] | anxiety level of mice [2] | effect on exploratory activity [2] | ability to discriminate a new object versus a familiar object [3] | effect on swim speed [4] | performance in the learning of spatial memory task in water maze [4] | effect in second probe trial (PT2) ([4]; FIG. 1H, after 15 days of the end of treatment) | effect in third probe trial (PT3) ([4]; FIG. 1H, after 30 days of the end of treatment) | performances in the first probe trial ([4]; FIG. 1H, probe trial 24 hours after acquisition, p<0.05) | numbers of BrdU positive cells in the GCL ([5]; FIG. 2B) | numbers of BrdU positive cells in the SGZ ([5]; FIG. 2B) | numbers of BrdU positive cells in the total DG ([5]; FIG. 2B) | number of BrdU/NeuN positive cells in the GCL ([5]; FIG. 2C) | number of BrdU/NeuN positive cells in the total DG ([5]; FIG. 2C) | expression of synaptophysin in the DG [6] | expression of synapsin I in the DG [7] | LIF-induced STAT3 phosphorylation (pY-STAT3 normalized to total STAT3) [8]
1 | CC(=O)N[C@@H](CC(=O)O)C(=O)NCC(=O)NCC(=O)N[C@@H](CC(C)C)C(=O)N[C@]12CC3CC(C1)C[C@@](C(N)=O)(C3)C2 [Peptide 021, Ac-Asp-Gly-Gly-Leu-^AGly-NH2] (HELM PEPTIDE1{[ac].D.G.G.L.[NC(=O)[C@]12CC3CC(C[C@](N[*:1])(C3)C1)C2]}$$$$V2.0) | did not induce any effect | No complications | reduced | did not induce any effect | significantly improved | did not induce any effect | increased performance | no longer effect | no longer effect | improved performances | significantly increased | significantly increased | significantly increased | significantly increased | significantly increased | significantly promoted | significantly promoted | Inhibition
2 | CC(C)C[C@H](NC(=O)CNC(=O)CNC(=O)[C@H](CC(=O)O)NC(=O)C12CC3CC(CC(C3)C1)C2)C(=O)NC12CC3CC(C1)CC(C(N)=O)(C3)C2 [Peptide 022, 1-AdCO-DGGL^AG-NH2] (HELM PEPTIDE1{[O=C(C12CC3CC(CC(C3)C1)C2)[*:2]].D.G.G.L.[NC(=O)C12CC3CC(CC(N[*:1])(C3)C1)C2]}$$$$V2.0) | did not induce any effect | No complications | reduced | did not induce any effect |  | did not induce any effect | increased performance |  |  |  |  |  |  |  |  |  |  | 
